Data taken from PubChem BioAssay (NCI).
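Step 1: Grow cells in 96-well plates. Step 2: Expose to compound for 48 hours at 5 concentrations. Step 3: Interpolate endpoints linearly; if unreached, use highest concentration. The concentration for full growth arrest is given as TGI.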

Assays:
Test in all cases: NCI-60 cell line screen, 48 h
OVCAR-8 ovarian = system: OVCAR-8 ovarian
HCT-15 colon = system: HCT-15 colon
XF 498 CNS = system: XF 498 CNS
UACC-62 melanoma = system: UACC-62 melanoma
OVCAR-4 ovarian = system: OVCAR-4 ovarian
OVCAR-5 ovarian = system: OVCAR-5 ovarian
SF-295 CNS = system: SF-295 CNS
IGROV1 ovarian = system: IGROV1 ovarian
SF-268 CNS = system: SF-268 CNS
U251 CNS = system: U251 CNS
NCI-H23 lung = system: NCI-H23 lung
DMS 114 small cell lung = system: DMS 114 small cell lung
NCI-H226 lung = system: NCI-H226 lung
TK-10 renal = system: TK-10 renal
HCC-2998 colon = system: HCC-2998 colon
SK-MEL-28 melanoma = system: SK-MEL-28 melanoma
SNB-19 CNS = system: SNB-19 CNS
SN12C renal = system: SN12C renal
KM12 colon = system: KM12 colon
HL-60(TB) leukemia = system: HL-60(TB) leukemia
M19-MEL melanoma = system: M19-MEL melanoma
SW-620 colon = system: SW-620 colon
COLO 205 colon = system: COLO 205 colon
CCRF-CEM leukemia = system: CCRF-CEM leukemia
OVCAR-3 ovarian = system: OVCAR-3 ovarian
K-562 leukemia = system: K-562 leukemia
NCI-H460 lung = system: NCI-H460 lung
RXF 393 renal = system: RXF 393 renal
MOLT-4 leukemia = system: MOLT-4 leukemia
RPMI-8226 leukemia = system: RPMI-8226 leukemia
HOP-18 NSCLC = system: HOP-18 NSCLC
SK-MEL-5 melanoma = system: SK-MEL-5 melanoma
UO-31 renal = system: UO-31 renal
DMS 273 small cell lung = system: DMS 273 small cell lung
UACC-257 melanoma = system: UACC-257 melanoma
SNB-75 CNS = system: SNB-75 CNS
SF-539 CNS = system: SF-539 CNS
SK-OV-3 ovarian = system: SK-OV-3 ovarian
MALME-3M melanoma = system: MALME-3M melanoma
786-0 renal = system: 786-0 renal
KM20L2 colon = system: KM20L2 colon
LOX IMVI melanoma = system: LOX IMVI melanoma
ACHN renal = system: ACHN renal
HT29 colon = system: HT29 colon
DLD-1 colon = system: DLD-1 colon
CAKI-1 renal = system: CAKI-1 renal
SK-MEL-2 melanoma = system: SK-MEL-2 melanoma
A549 NSCLC = system: A549 NSCLC
RXF-631 renal = system: RXF-631 renal
EKVX NSCLC = system: EKVX NSCLC
LXFL 529 NSCLC = system: LXFL 529 NSCLC
HCT-116 colon = system: HCT-116 colon
M14 melanoma = system: M14 melanoma
A498 renal = system: A498 renal
HOP-92 NSCLC = system: HOP-92 NSCLC
NCI-H522 lung = system: NCI-H522 lung
HOP-62 NSCLC = system: HOP-62 NSCLC
SNB-78 CNS = system: SNB-78 CNS

N#CC(C(=O)C(N)=O)c1ccccc1Cl (stereo not drawn)
TGI (OVCAR-8 ovarian): > 100 µM | TGI (HCT-15 colon): > 100 µM | TGI (XF 498 CNS): > 100 µM | TGI (UACC-62 melanoma): > 100 µM | TGI (OVCAR-4 ovarian): > 100 µM | TGI (OVCAR-5 ovarian): > 100 µM | TGI (SF-295 CNS): > 100 µM | TGI (IGROV1 ovarian): > 100 µM | TGI (SF-268 CNS): > 100 µM | TGI (U251 CNS): > 100 µM | TGI (NCI-H23 lung): > 100 µM | TGI (DMS 114 small cell lung): > 100 µM | TGI (NCI-H226 lung): > 100 µM | TGI (TK-10 renal): > 100 µM | TGI (HCC-2998 colon): > 100 µM | TGI (SK-MEL-28 melanoma): > 100 µM | TGI (SNB-19 CNS): > 100 µM | TGI (SN12C renal): > 100 µM | TGI (KM12 colon): > 100 µM | TGI (HL-60(TB) leukemia): > 100 µM | TGI (M19-MEL melanoma): > 100 µM | TGI (SW-620 colon): > 100 µM | TGI (COLO 205 colon): > 100 µM | TGI (CCRF-CEM leukemia): > 100 µM | TGI (OVCAR-3 ovarian): > 100 µM | TGI (K-562 leukemia): > 100 µM | TGI (NCI-H460 lung): > 100 µM | TGI (RXF 393 renal): > 100 µM | TGI (MOLT-4 leukemia): > 100 µM | TGI (RPMI-8226 leukemia): > 100 µM | TGI (HOP-18 NSCLC): > 100 µM | TGI (SK-MEL-5 melanoma): > 100 µM | TGI (UO-31 renal): > 100 µM | TGI (DMS 273 small cell lung): > 100 µM | TGI (UACC-257 melanoma): > 100 µM | TGI (SNB-75 CNS): > 100 µM | TGI (SF-539 CNS): > 100 µM | TGI (SK-OV-3 ovarian): > 100 µM | TGI (MALME-3M melanoma): > 100 µM | TGI (786-0 renal): > 100 µM | TGI (KM20L2 colon): > 100 µM | TGI (LOX IMVI melanoma): > 100 µM | TGI (ACHN renal): > 100 µM | TGI (HT29 colon): > 100 µM | TGI (DLD-1 colon): > 100 µM | TGI (CAKI-1 renal): > 100 µM | TGI (SK-MEL-2 melanoma): > 100 µM | TGI (A549 NSCLC): > 100 µM | TGI (RXF-631 renal): > 100 µM | TGI (EKVX NSCLC): > 100 µM | TGI (LXFL 529 NSCLC): > 100 µM | TGI (HCT-116 colon): > 100 µM | TGI (M14 melanoma): > 100 µM | TGI (A498 renal): > 100 µM

O=C(O)C(CO)N=Cc1nc(-c2ccccc2)oc1O (stereo not drawn)
TGI (HOP-92 NSCLC): > 100 µM | TGI (OVCAR-8 ovarian): > 100 µM | TGI (HCT-15 colon): > 100 µM | TGI (XF 498 CNS): > 100 µM | TGI (UACC-62 melanoma): > 100 µM | TGI (OVCAR-4 ovarian): > 100 µM | TGI (NCI-H522 lung): > 100 µM | TGI (OVCAR-5 ovarian): > 100 µM | TGI (SF-295 CNS): > 100 µM | TGI (IGROV1 ovarian): > 100 µM | TGI (SF-268 CNS): > 100 µM | TGI (U251 CNS): > 100 µM | TGI (NCI-H23 lung): > 100 µM | TGI (DMS 114 small cell lung): > 100 µM | TGI (NCI-H226 lung): > 100 µM | TGI (TK-10 renal): > 100 µM | TGI (HCC-2998 colon): > 100 µM | TGI (SK-MEL-28 melanoma): > 100 µM | TGI (SNB-19 CNS): > 100 µM | TGI (KM12 colon): > 100 µM | TGI (HL-60(TB) leukemia): > 100 µM | TGI (M19-MEL melanoma): > 100 µM | TGI (SW-620 colon): > 100 µM | TGI (COLO 205 colon): > 100 µM | TGI (CCRF-CEM leukemia): > 100 µM | TGI (OVCAR-3 ovarian): > 100 µM | TGI (K-562 leukemia): > 100 µM | TGI (NCI-H460 lung): > 100 µM | TGI (RXF 393 renal): > 100 µM | TGI (RPMI-8226 leukemia): > 100 µM | TGI (HOP-62 NSCLC): > 100 µM | TGI (HOP-18 NSCLC): > 100 µM | TGI (SK-MEL-5 melanoma): > 100 µM | TGI (UO-31 renal): > 100 µM | TGI (DMS 273 small cell lung): > 100 µM | TGI (UACC-257 melanoma): > 100 µM | TGI (SNB-75 CNS): > 100 µM | TGI (SF-539 CNS): > 100 µM | TGI (SK-OV-3 ovarian): > 100 µM | TGI (SNB-78 CNS): > 100 µM | TGI (MALME-3M melanoma): > 100 µM | TGI (786-0 renal): > 100 µM | TGI (KM20L2 colon): > 100 µM | TGI (LOX IMVI melanoma): > 100 µM | TGI (ACHN renal): > 100 µM | TGI (HT29 colon): > 100 µM | TGI (DLD-1 colon): > 100 µM | TGI (CAKI-1 renal): > 100 µM | TGI (SK-MEL-2 melanoma): > 100 µM | TGI (A549 NSCLC): > 100 µM | TGI (RXF-631 renal): > 100 µM | TGI (EKVX NSCLC): > 100 µM | TGI (LXFL 529 NSCLC): > 100 µM | TGI (HCT-116 colon): > 100 µM | TGI (M14 melanoma): > 100 µM | TGI (A498 renal): > 100 µM

CC1(C)OCC[C@@H]1[Si](C)(C)C
TGI (HOP-92 NSCLC): > 100 µM | TGI (OVCAR-8 ovarian): > 100 µM | TGI (HCT-15 colon): > 100 µM | TGI (XF 498 CNS): > 100 µM | TGI (UACC-62 melanoma): > 100 µM | TGI (OVCAR-4 ovarian): > 100 µM | TGI (NCI-H522 lung): 61 µM | TGI (OVCAR-5 ovarian): > 100 µM | TGI (SF-295 CNS): > 100 µM | TGI (IGROV1 ovarian): > 100 µM | TGI (SF-268 CNS): > 100 µM | TGI (U251 CNS): > 100 µM | TGI (NCI-H23 lung): > 100 µM | TGI (DMS 114 small cell lung): > 100 µM | TGI (NCI-H226 lung): > 100 µM | TGI (TK-10 renal): > 100 µM | TGI (SK-MEL-28 melanoma): > 100 µM | TGI (SNB-19 CNS): > 100 µM | TGI (SN12C renal): > 100 µM | TGI (KM12 colon): > 100 µM | TGI (M19-MEL melanoma): > 100 µM | TGI (SW-620 colon): > 100 µM | TGI (COLO 205 colon): > 100 µM | TGI (CCRF-CEM leukemia): > 100 µM | TGI (OVCAR-3 ovarian): > 100 µM | TGI (K-562 leukemia): > 100 µM | TGI (NCI-H460 lung): > 100 µM | TGI (RXF 393 renal): 89.8 µM | TGI (MOLT-4 leukemia): > 100 µM | TGI (RPMI-8226 leukemia): > 100 µM | TGI (HOP-18 NSCLC): > 100 µM | TGI (SK-MEL-5 melanoma): > 100 µM | TGI (UO-31 renal): > 100 µM | TGI (DMS 273 small cell lung): > 100 µM | TGI (UACC-257 melanoma): > 100 µM | TGI (SNB-75 CNS): > 100 µM | TGI (SF-539 CNS): > 100 µM | TGI (SK-OV-3 ovarian): > 100 µM | TGI (SNB-78 CNS): > 100 µM | TGI (MALME-3M melanoma): > 100 µM | TGI (786-0 renal): > 100 µM | TGI (KM20L2 colon): > 100 µM | TGI (LOX IMVI melanoma): > 100 µM | TGI (ACHN renal): > 100 µM | TGI (HT29 colon): > 100 µM | TGI (SK-MEL-2 melanoma): > 100 µM | TGI (A549 NSCLC): > 100 µM | TGI (RXF-631 renal): > 100 µM | TGI (EKVX NSCLC): > 100 µM | TGI (LXFL 529 NSCLC): > 100 µM | TGI (HCT-116 colon): > 100 µM | TGI (M14 melanoma): > 100 µM | TGI (A498 renal): > 100 µM
